# Laboratory results published in patent US12428406B2 (PMV Pharmaceuticals, Inc., priority 2019, dated 2025).
# Target: T1, p53 Y220C (Homo sapiens, UniProt P04637, Y220C)
# T1 construct: The recombinant protein was a truncation mutant containing only amino acids 94-312 of p53; made in house; host or cells: E. coli
# Experiment: In vitro DNA binding activity assay (HTRF / TR-FRET): stabilization of p53 Y220C and increase of its DNA binding activity
# Type: biochemical
# Conditions: recombinant His-tagged p53 Y220C DNA binding domain (aa 94-312), biotin-labeled consensus DNA, incubated at 27° C. or 29° C. for 60 min
# Outline: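 Compounds from 4.5 mM DMSO stocks, 3-fold serial dilutions; room-temperature incubations of 15 and 20 min. SC150 = concentration raising DNA binding by 50% over no-compound control.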
# T1 sequence (P04637 94-312, change not shown): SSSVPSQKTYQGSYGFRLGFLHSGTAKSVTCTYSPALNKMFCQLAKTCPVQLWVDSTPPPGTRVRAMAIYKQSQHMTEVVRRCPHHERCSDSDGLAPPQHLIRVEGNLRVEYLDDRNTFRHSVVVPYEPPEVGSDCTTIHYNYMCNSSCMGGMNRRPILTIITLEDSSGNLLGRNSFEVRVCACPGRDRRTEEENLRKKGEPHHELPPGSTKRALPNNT
row,Structure (SMILES),SC150 (concentration of the compound required to increase the DNA binding activity by 50%)
1,"CS(=O)(=O)c1ccc(NCC#Cc2cc3c(N[C@H]4CC[C@@H](N5CC6(COC6)C5)CC4)cccc3n2CC(F)(F)F)c(OCCO)c1 [Compound 226A, 2-(5-methanesulfonyl-2-{[3-(4-{[(1S,4S)-4-{2-oxa-6-azaspiro[3.3]heptan-6-yl}cyclo-hexyl]amino}-1-(2,2,2-trifluoroethyl)-1H-indol-2-yl)prop-2-yn-1-yl]amino}phenoxy)ethan-1-ol]",+ (+ = 0 μM ≤ SC150 < 0.05 μM)
2,"CCS(=O)(=O)c1ccc(NCC#Cc2cc3c(NC4CCN(CC(O)COC)CC4)cccc3n2CC(F)(F)F)c(OC)c1 (centres unmarked) [Compound 662A, 1-(4-{[2-(3-{[4-(ethanesulfonyl)-2-methoxyphenyl]amino}prop-1-yn-1-yl)-1-(2,2,2-trifluoroethyl)-1H-indol-4-yl]amino}piperidin-1-yl)-3-methoxypropan-2-ol]",+ (+ = 0 μM ≤ SC150 < 0.05 μM)
3,"COc1cc(C(=O)NCCN2CCOCC2)ccc1NCC#Cc1cc2c(N[C@@H]3CCN(C)C[C@@H]3F)cccc2n1CC(F)(F)F [Compound 924A, 4-{[3-(4-{[(3S,4R)-3-fluoro-1-methylpiperidin-4-yl]amino}-1-(2,2,2-trifluoroethyl)-1H-indol-2-yl)prop-2-yn-1-yl]amino}-3-methoxy-N-[2-(morpholin-4-yl)ethyl]benzamide]",+ (+ = 0 μM ≤ SC150 < 0.05 μM)
4,COCCN(C)[C@H]1CC[C@H](Nc2cccc3c2cc(C#CCNc2ccc(S(C)(=O)=O)cc2OCC#N)n3CC(F)(F)F)CC1 [Compound 149A],+ (+ = 0 μM ≤ SC150 < 0.05 μM)
5,"COc1cc(S(N)(=O)=O)ccc1NCC#Cc1cc2c(N[C@@H]3CCN(C[C@H](COC(C)=O)OC(C)=O)C[C@@H]3F)cccc2n1CC(F)(F)F [Compound 890A, (2R)-1-(acetyloxy)-3-[(3S,4R)-3-fluoro-4-[(2-{3-[(2-methoxy-4-sulfamoylphenyl)amino]prop-1-yn-1-yl}-1-(2,2,2-trifluoroethyl)-1H-indol-4-yl)amino]piperidin-1-yl]propan-2-yl acetate]",+ (+ = 0 μM ≤ SC150 < 0.05 μM)
6,"COCC(O)CN1CCC(Nc2cccc3c2cc(C#CCNc2ccc(S(C)(=O)=O)cc2OCF)n3CC(F)(F)F)CC1 (centres unmarked) [Compound 664A, 1-(4-{[2-(3-{[2-(fluoromethoxy)-4-methanesulfonylphenyl]amino}prop-1-yn-1-yl)-1-(2,2,2-trifluoroethyl)-1H-indol-4-yl]amino}piperidin-1-yl)-3-methoxypropan-2-ol]",+ (+ = 0 μM ≤ SC150 < 0.05 μM)
7,"CNC(=O)c1ccc(NCC#Cc2cc3c(N[C@H]4CC[C@H](N5CC6(CCCOC6)C5)CC4)cccc3n2CC(F)(F)F)c(OC)c1 [Compound 318A, 3-methoxy-N-methyl-4-{[3-(4-{[(1R,4R)-4-{6-oxa-2-azaspiro[3.5]nonan-2-yl}cyclohexyl]amino}-1-(2,2,2-trifluoroethyl)-1H-indol-2-yl)prop-2-yn-1-yl]amino} benzamide]",+ (+ = 0 μM ≤ SC150 < 0.05 μM)
8,"COc1cc(-c2nccs2)ccc1NCC#Cc1cc2c(NC3CCN(C)CC3)cccc2n1CC(F)(F)F [Compound 509A, 2-(3-{[2-methoxy-4-(1,3-thiazol-2-yl)phenyl]amino}prop-1-yn-1-yl)-N-(1-methylpiperidin-4-yl)-1-(2,2,2-trifluoroethyl)-1H-indol-4-amine]",+ (+ = 0 μM ≤ SC150 < 0.05 μM)
9,"COc1cc(C(=O)O)ccc1NCC#Cc1cc2c(NC3CCN(C[C@@H](C)O)CC3F)cccc2n1CC(F)(F)F (mixture of isomers) [Compound 911A, 4-{[3-(4-{[(3S,4R)-3-fluoro-1-(2-hydroxypropyl)piperidin-4-yl]amino}-1-(2,2,2-trifluoroethyl)-1H-indol-2-yl)prop-2-yn-1-yl]amino}-3-methoxybenzoic acid]",+ (+ = 0 μM ≤ SC150 < 0.05 μM)
10,"CN(C)[C@H]1CC[C@H](Nc2cccc3c2cc(C#CCOc2ccc(S(C)(=O)=O)cc2N)n3CC(F)(F)F)CC1 [Compound 100A, (1R,4R)-N^4-{2-[3-(2-amino-4-methane-sulfonylphenoxy)prop-1-yn-1-yl]-1-(2,2,2-trifluoroethyl)-1H-indol-4-yl}-N^1,N^1-dimethylcyclohexane-1,4-diamine]",+ (+ = 0 μM ≤ SC150 < 0.05 μM)
11,CCC(=O)NS(=O)(=O)c1ccc(NCC#Cc2cc3c(N[C@H]4CC[C@@H](N(C)C)CC4)cccc3n2CC(F)(F)F)c(OC)c1 [Compound 86A],+ (+ = 0 μM ≤ SC150 < 0.05 μM)
12,"CN1CC[C@@H](Nc2cccc3c2cc(C#CCNC(=O)C2CC2)n3CC(F)(F)F)[C@@H](F)C1 [Compound 951A, N-[3-(4-{[(3S,4R)-3-fluoro-1-methylpiperidin-4-yl]amino}-1-(2,2,2-trifluoroethyl)-1H-indol-2-yl)prop-2-yn-1-yl]cyclopropanecarboxamide]",+ (+ = 0 μM ≤ SC150 < 0.05 μM)
13,"COC(=O)c1ccc(NCC#Cc2cc3c(N[C@@H]4CCN(CC(C)O)C[C@@H]4F)cccc3n2CC(F)(F)F)c(OC)c1 (mixture of isomers) [Compound 900A, methyl 4-{[3-(4-{[(3S,4R)-3-fluoro-1-(2-hydroxypropyl)piperidin-4-yl]amino}-1-(2,2,2-trifluoroethyl)-1H-indol-2-yl)prop-2-yn-1-yl]amino}-3-methoxybenzoate]",+ (+ = 0 μM ≤ SC150 < 0.05 μM)

# More lines, now with the values ahead:
row,SC150 (concentration of the compound required to increase the DNA binding activity by 50%),Structure (SMILES)
1,+ (+ = 0 μM ≤ SC150 < 0.05 μM),CCN1CC[C@H](Nc2cccc3c2cc(C#CCNc2ccc(S(C)(=O)=O)cc2OC)n3CC(F)(F)F)[C@H](F)C1 [Compound 813A]
2,+ (+ = 0 μM ≤ SC150 < 0.05 μM),"COCC(O)CN1CCCC(Nc2cccc3c2cc(C#CCNc2ccc(S(C)(=O)=O)cc2OC)n3CC(F)(F)F)CC1 (centres unmarked) [Compound 989A, 1-{4-[(2-{3-[(4-methanesulfonyl-2-methoxyphenyl)amino]prop-1-yn-1-yl}-1-(2,2,2-trifluoroethyl)-1H-indol-4-yl)amino]azepan-1-yl}-3-methoxypropan-2-ol]"
3,+ (+ = 0 μM ≤ SC150 < 0.05 μM),"COc1cc(S(C)(=O)=O)ccc1NCC#Cc1cc2c(NC3CCN(CC(O)COC(=O)C(C)C)CC3)cccc2n1CC(F)(F)F (centres unmarked) [Compound 592A, 2-hydroxy-3-{4-[(2-{3-[(4-methanesulfonyl-2-methoxyphenyl)amino]prop-1-yn-1-yl}-1-(2,2,2-trifluoroethyl)-1H-indol-4-yl)amino]piperidin-1-yl}propyl 2-methylpropanoate]"
4,+ (+ = 0 μM ≤ SC150 < 0.05 μM),"COc1cc(S(C)(=O)=O)ccc1NCC#Cc1cc2c(NC3CCN(CC(C)(C)OC)CC3)cccc2n1CC(F)(F)F [Compound 692A, 2-{3-[(4-methanesulfonyl-2-methoxyphenyl)amino]prop-1-yn-1-yl}-N-[1-(2-methoxy-2-methylpropyl)piperidin-4-yl]-1-(2,2,2-trifluoroethyl)-1H-indol-4-amine]"
5,+ (+ = 0 μM ≤ SC150 < 0.05 μM),"CCC(=O)OC(C)CN1CCC(Nc2cccc3c2cc(C#CCNc2ccc(S(C)(=O)=O)cc2OC)n3CC(F)(F)F)CC1 (racemic) [Compound 590A, 1-{4-[(2-{3-[(4-methanesulfonyl-2-methoxyphenyl)amino]prop-1-yn-1-yl}-1-(2,2,2-trifluoroethyl)-1H-indol-4-yl)amino]piperidin-1-yl}propan-2-yl propanoate]"
6,+ (+ = 0 μM ≤ SC150 < 0.05 μM),"COc1cc(S(N)(=O)=O)ccc1NCC#Cc1cc2c(N[C@H]3CC[C@H](N4CC5(CCC5)C4)CC3)cccc2n1CC(F)(F)F [Compound 198A, 3-methoxy-4-{[3-(4-{[(1R,4R)-4-{2-azaspiro[3.3]heptan-2-yl}cyclohexyl]amino}-1-(2,2,2-trifluoroethyl)-1H-indol-2-yl)prop-2-yn-1-yl]amino}benzene-1-sulfonamide]"
7,+ (+ = 0 μM ≤ SC150 < 0.05 μM),"CCN1CC[C@H](Nc2cccc3c2cc(C#CCNc2ccc(S(C)(=O)=O)cc2OC)n3CC(F)(F)F)[C@H](F)C1 (racemic) [Compound 820A, rac-N-[(3R,4S)-1-ethyl-3-fluoropiperidin-4-yl]-2-{3-[(4-methanesulfonyl-2-methoxyphenyl)amino]prop-1-yn-1-yl}-1-(2,2,2-trifluoroethyl)-1H-indol-4-amine]"
8,+ (+ = 0 μM ≤ SC150 < 0.05 μM),"CN(C)[C@H]1CC[C@H](Nc2cccc3c2cc(C#CCNc2ccc(S(C)(=O)=O)cc2OCF)n3CC(F)(F)F)CC1 [Compound 117A, (1R,4R)—N^1-(2-(3-((2-(fluoromethoxy)-4-(methylsulfonyl)phenyl)amino)prop-1-yn-1-yl)-1-(2,2,2-trifluoroethyl)-1H-indol-4-yl)-N^4,N^4-dimethylcyclohexane-1,4-diamine]"
9,+ (+ = 0 μM ≤ SC150 < 0.05 μM),"COc1cc(S(C)(=O)=O)ccc1NCC#Cc1cc2c(N[C@H]3CCC[C@@H](N)C3)cccc2n1CC(F)(F)F (racemic) [Compound 27A, rac-(1R,3S)-N^1-(2-{3-[(4-methanesulfonyl-2-methoxyphenyl)amino]prop-1-yn-1-yl}-1-(2,2,2-trifluoroethyl)-1H-indol-4-yl)cyclohexane-1,3-diamine]"
10,+ (+ = 0 μM ≤ SC150 < 0.05 μM),"COCCCN1CCC(Nc2cccc3c2cc(C#CCNc2ccc(S(C)(=O)=O)cc2OC)n3CC(F)(F)F)CC1 [Compound 675A, 2-{3-[(4-methanesulfonyl-2-methoxyphenyl)amino]prop-1-yn-1-yl}-N-[1-(3-methoxypropyl)piperidin-4-yl]-1-(2,2,2-trifluoroethyl)-1H-indol-4-amine]"
